Experimental data from patent US10273263B2, “Pro-drug forming compounds” (priority 2013, dated 2019).
pIC50: −log10 of the molar value. Where two headings read alike, the source gives them in different places.

How the values were obtained:
[1] = oral biological activity: % uterine weight increase compared to vehicle; assay type: in vivo, rat; details: for change in vivo at 0.01 mg / change in vivo at 0.03 mg: Rattus norvegicus, oral; for change in vivo at 0.01 mg: 10.0 μg; for change in vivo at 0.03 mg: 30.0 μg
Experimental: Exemplary compounds were tested for: oral biological activity (Table 1); binding to human carbonic anhydrase II (hCA 2) (Table 2); and, for some compounds enzymatic saponification (Table 3).

[2] = biological target: human carbonic anhydrase II (hCA 2) (Homo sapiens, UniProt P00918); assay: Human Carbonic Anhydrase II inhibition; assay type: biochemical; details: for IC50: read-out: hCAII (IC50 nM)

SMILES	change in vivo at 0.01 mg [1] [%]	IC50 [2] [nM]	change in vivo at 0.03 mg [1] [%]	pIC50 [2]	oral activity ([1]; oral dose, comparison in words)
C[C@]12CCC3c4ccc(O)cc4CCC3C1CC[C@@H]2OC(=O)CNC(=O)c1ccc(S(N)(=O)=O)cc1 (stereo partly drawn) [Compound 6A, (13S,17S)-3-hydroxy-13-methyl-7,8,9,11,12,13,14,15,16,17-decahydro-6H-cyclopenta[a]phenanthren-17-yl 2-(4-sulfamoylbenzamido)acetate]	152	65	–	–	–
C[C@]12CC[C@@H]3c4ccc(O)cc4CC[C@H]3[C@@H]1CC[C@@H]2O [Compound E2, estradiol, reference compound]	118	–	–	–	–
C[C@]12CCC3c4ccc(O)cc4CCC3C1CC[C@@H]2OC(=O)CN(Cc1cccc(S(N)(=O)=O)c1)Cc1cccc(S(N)(=O)=O)c1 (stereo partly drawn) [Compound 13A, (13S,17S)-3-hydroxy-13-methyl-7,8,9,11,12,13,14,15,16,17-decahydro-6H-cyclopenta[a]phenanthren-17-yl 2-(bis(3-sulfamoylbenzyl)amino)acetate]	–	500	136	–	–
C[C@]12CCC3c4ccc(O)cc4CCC3C1CC[C@@H]2OC(=O)[C@@H]1CCCN1c1ccc(S(N)(=O)=O)cc1 (stereo partly drawn) [Compound 22A, [(13S,17S)-3-hydroxy-13-methyl-6,7,8,9,11,12,14,15,16,17-decahydrocyclopenta[a]phenanthren-17-yl] 1-(4-sulfamoylphenyl)pyrrolidine-2-carboxylate]	91.6	198	–	–	–
C[C@]12CCC3c4ccc(O)cc4CCC3C1CC[C@@H]2OC(=O)c1cccc(S(N)(=O)=O)c1 (stereo partly drawn) [Compound 1A, (13S, 17S)-3-hydroxy-13-methyl-7,8,9,11,12,13,14,15,16,17-decahydro-6H-cyclopenta[a]phenanthren-17-yl 3-sulfamoylbenzoate, reference compound]	–	258	212	–	–
C#C[C@]1(O)CC[C@H]2[C@@H]3CCc4cc(O)ccc4[C@H]3CC[C@@]21C [EE, ethinyl estradiol, reference compound]	154	–	–	–	–
C[C@@H](C(=O)O[C@H]1CCC2C3CCc4cc(O)ccc4C3CC[C@@]21C)N(C)C(=O)c1ccc(S(N)(=O)=O)cc1 (stereo partly drawn) [Compound 18A, [(13S,17S)-3-hydroxy-13-methyl-6,7,8,9,11,12,14,15,16,17-decahydrocyclopenta[a]phenanthren-17-yl](2S)-2-[methyl-(4-sulfamoylbenzoyl)amino]propanoate]	209	–	–	6.69	–
CC(C)(NC(=O)c1ccc(S(N)(=O)=O)cc1)C(=O)O[C@H]1CCC2C3CCc4cc(O)ccc4C3CC[C@@]21C (stereo partly drawn) [Compound 20A, [(13S,17S)-3-hydroxy-13-methyl-6,7,8,9,11,12,14,15,16,17-decahydrocyclopenta[a]phenanthren-17-yl] 2-methyl-2-[(4-sulfamoylbenzoyl)amino]propanoate]	97.1	–	–	6.63	–
C[C@]12CCC3c4ccc(O)cc4CCC3C1CC[C@@H]2OC(=O)COCc1ccc(S(N)(=O)=O)cc1 (stereo partly drawn) [Compound 17A, (13S,17S)-3-hydroxy-13-methyl-7,8,9,11,12,13,14,15,16,17-decahydro-6H-cyclopenta[a]phenanthren-17-yl 2-(4-sulfamoylbenzyloxy)acetate]	–	125	133	–	–
C[C@H](NC(=O)c1ccc(S(N)(=O)=O)cc1)C(=O)O[C@H]1CCC2C3CCc4cc(O)ccc4C3CC[C@@]21C (stereo partly drawn) [Compound 12A, (2S)-((13S,17S)-3-hydroxy-13-methyl-7,8,9,11,12,13,14,15,16,17-decahydro-6H-cyclopenta[a]-phenanthren-17-yl) 2-(4-sulfamoylbenzamido)propanoate]	–	–	271	6.60	–
C[C@]12CCC3c4ccc(O)cc4CCC3C1CC[C@@H]2OC(=O)[C@@H]1CCCN1Cc1ccc(S(N)(=O)=O)cc1 (stereo partly drawn) [Compound 23A, [(13S,17S)-3-hydroxy-13-methyl-6,7,8,9,11,12,14,15,16,17-decahydrocyclopenta[a]phenanthren-17-yl] 1-[(4-sulfamoylphenyl)methyl]pyrrolidine-2-carboxylate]	272	129	–	–	–
C[C@]12CCC3c4ccc(O)cc4CCC3C1CC[C@@H]2OC(=O)COC(=O)c1cccc(S(N)(=O)=O)c1 (stereo partly drawn) [Compound 2A, 2-((13S,17S)-3-hydroxy-13-methyl-7,8,9,11,12,13,14,15,16,17-decahydro-6H-cyclopenta[a]phenanthren-17-yloxy)-2-oxoethyl 3-sulfamoylbenzoate]	–	3500	–	–	–
C[C@]12CCC3c4ccc(O)cc4CCC3C1CC[C@@H]2OC(=O)CNCc1cccc(S(N)(=O)=O)c1 (stereo partly drawn) [Compound 14A, (13S,17S)-3-hydroxy-13-methyl-7,8,9,11,12,13,14,15,16,17-decahydro-6H-cyclopenta[a]phenanthren-17-yl 2-(3-sulfamoylbenzylamino)acetate]	–	450	187	–	–
C[C@]12CCC3c4ccc(O)cc4CCC3C1CC[C@@H]2OC(=O)/C=C/C(=O)NCc1ccc(S(N)(=O)=O)cc1 (stereo partly shown) [Compound 4A]	–	450	164	–	–
C[C@]12CCC3c4ccc(O)cc4CCC3C1CC[C@@H]2OC(=O)CNC(=O)c1cccc(S(N)(=O)=O)c1 (stereo partly drawn) [Compound 5A, (13S,17S)-3-hydroxy-13-methyl-7,8,9,11,12,13,14,15,16,17-decahydro-6H-cyclopenta[a]phenanthren-17-yl 2-(3-sulfamoylbenzamido)-acetate]	–	42	171	–	–
C[C@]12CCC3c4ccc(O)cc4CCC3C1CC[C@@H]2OC(=O)COc1ccc(S(N)(=O)=O)cc1 (stereo partly drawn) [Compound 15A, (13S,17S)-3-hydroxy-13-methyl-7,8,9,11,12,13,14,15,16,17-decahydro-6H-cyclopenta[a]phenanthren-17-yl 2-(4-sulfamoylphenoxy)acetate]	–	105	152	–	–
C[C@]12CCC3c4ccc(O)cc4CCC3C1CC[C@@H]2OC(=O)C1(S(N)(=O)=O)CC1 (stereo partly drawn) [Compound 16A, (13S,17S)-3-hydroxy-13-methyl-7,8,9,11,12,13,14,15,16,17-decahydro-6H-cyclopenta[a]phenanthren-17-yl 1-sulfamoylcyclopropanecarboxylate]	–	> 10000	314	–	comparable high oral activity
CC(C)[C@H](NC(=O)c1ccc(S(N)(=O)=O)cc1)C(=O)O[C@H]1CCC2C3CCc4cc(O)ccc4C3CC[C@@]21C (stereo partly drawn) [Compound 19A, [(13S,17S)-3-hydroxy-13-methyl-6,7,8,9,11,12,14,15,16,17-decahydrocyclopenta[a]phenanthren-17-yl] (2S)-3-methyl-2-[(4-sulfamoylbenzoyl)amino]butanoate]	267	202	–	–	–
C[C@]12CCC3c4ccc(O)cc4CCC3C1CC[C@@H]2OC(=O)[C@@H]1CCCN1C(=O)c1cccc(S(N)(=O)=O)c1 (stereo partly drawn) [Compound 7A, (2S)-((13S,17S)-3-hydroxy-13-methyl-7,8,9,11,12,13,14,15,16,17-decahydro-6H-cyclopenta[a]-phenanthren-17-yl) 1-(3-sulfamoylbenzoyl)pyrrolidine-2-carboxylate]	108	300	–	–	–
C[C@]12CCC3c4ccc(O)cc4CCC3C1CC[C@@H]2OC(=O)C(F)(F)S(N)(=O)=O (stereo partly drawn) [Compound 9A, (13S,17S)-3-hydroxy-13-methyl-7,8,9,11,12,13,14,15,16,17-decahydro-6H-cyclopenta[a]phenanthren-17-yl 2,2-difluoro-2-sulfamoylacetate]	218	85	–	–	–
C[C@]12CCC3c4ccc(O)cc4CCC3C1CC[C@@H]2OC(=O)COC(=O)c1ccc(S(N)(=O)=O)cc1 (stereo partly drawn) [Compound 3A, 2-((13S,17S)-3-hydroxy-13-methyl-7,8,9,11,12,13,14,15,16,17-decahydro-6H-cyclopenta[a]phenanthren-17-yloxy)-2-oxoethyl 4-sulfamoylbenzoate]	–	250	197	–	–
C[C@H](NC(=O)c1cccc(S(N)(=O)=O)c1)C(=O)O[C@H]1CCC2C3CCc4cc(O)ccc4C3CC[C@@]21C (stereo partly drawn) [Compound 11A, (2S)-((13S,17S)-3-hydroxy-13-methyl-7,8,9,11,12,13,14,15,16,17-decahydro-6H-cyclopenta[a]-phenanthren-17-yl) 2-(3-sulfamoylbenzamido)propanoate]	170	310	–	–	–
C[C@]12CCC3c4ccc(O)cc4CCC3C1CC[C@@H]2OC(=O)[C@H](Cc1ccccc1)NC(=O)c1ccc(S(N)(=O)=O)cc1 (stereo partly drawn) [Compound 21A, [(13S,17S)-3-hydroxy-13-methyl-6,7,8,9,11,12,14,15,16,17-decahydrocyclopenta[a]phenanthren-17-yl] (2S)-3-phenyl-2-[(4-sulfamoylbenzoyl)amino]propanoate]	117	100	–	–	–
C[C@]12CCC3c4ccc(O)cc4CCC3C1CC[C@@H]2OC(=O)CS(N)(=O)=O (stereo partly drawn) [Compound 10A, (13S,17S)-3-hydroxy-13-methyl-7,8,9,11,12,13,14,15,16,17-decahydro-6H-cyclopenta[a]phenanthren-17-yl 2-sulfamoylacetate]	177	510	–	–	–
